Series [1] deals with Carrageenan-Induced Edema in Rat Paws. Put plainly: Carrageenan-induced edema in rat paws (anti-inflammatory effect). Format: in vivo. The settings on record: 3 h, oral, carrageenan injected one hour after dosing, swelling measured at third hour of carrageenan injection, read-out: % Inhibition of Paw Edema. The procedure: For example, in a laboratory experiment, one hour after oral administration with these compounds, the rats were subcutaneously injected with 0.1 ml of 1% carrageenan suspension on the plantar surface of the right hind paw. The swelling was measured at the third hour of carrageenan injection. Anti-inflammatory effect of the compounds was determined as percentage inhibition of the swelling, taking the swelling in the control groups as 100%.

Series [2] concerns acetic acid stretching in mice. Put plainly: Acetic acid stretching method (analgesic effect in mice). The settings on record: male mice, oral, 0.6% acetic acid i.p. 30 minutes later, counted for 10 minutes from 5 minutes after injection. Type of series: in vivo. As to the method:
Male mice were given orally with these compounds and 30 minutes later injected intraperitoneally with 0.1 ml/10 g of 0.6% acetic acid. The number of stretching was countered for 10 minutes from 5 minutes after injection of acetic acid. The value was expressed in the percentage of control.

A further series has as its system ulcer in rats. Put plainly: Sign of ulcer upon oral administration in rats. Format: in vivo, rat. The settings on record: 200 mg/kg.
The test system of series [3] is pain threshold of inflamed foot (beer yeast) in rats. The series can be described thus: Randall-Selitto method (analgesic effect in rat). The settings on record: male rats, oral, 2 hours after 20% beer yeast into subplantar area. Type of series: in vivo. The procedure:
Male rats were administered orally with 2-propionyl-4-tert-butyl-6-aminomethylphenol hydrochloride 2 hours after injection of 0.1 ml of 20% suspension beer yeast into subplantar area of one hind paw. Pain threshold determination was made on the normal and inflamed foot, using apparatus similar to that described by Randall-Selitto. Pain threshold change was expressed as percentage of control.

Structures can show the parent of a compound that is named as a salt.

For `CC(C)C(=O)c1cc(C(C)(C)C)cc(CN)c1O.Cl` [2-Isobutyryl-4-tert-butyl-6-aminomethylphenol hydrochloride], the inhibition in vivo at 30 mg/kg in series [1] came to 55.5%. Further, in series [2] (50 mg/kg), the “% Inhibition (acetic acid stretching)” value is on record as 49.7%. Turning to `CC(C)(C)c1cc(CN)c(O)c(C(=O)CCl)c1` [2-Chloroacetyl-4-tert-butyl-6-aminomethylphenol hydrochloride], the inhibition in vivo at 30 mg/kg in series [1] came out at 59.2%. Still for that read-out and setting: to `CC(=O)c1c(O)c(CN)cc2c1CCCC2` [1-Acetyl-3-aminomethyl-5,6,7,8-tetrahydro-2-naphthol hydrochloride] belongs 55.3%. Turning to `CCCC(=O)c1cc(C(C)(C)C)cc(CN)c1O` [2-Butyryl-4-tert-butyl-6-aminomethylphenol hydrochloride], the inhibition in vivo at 30 mg/kg in series [1] is 34.1%. In the case of `CC(C)(C)c1cc(CN)c(O)c(C(=O)c2ccc(Br)cc2)c1` [2-(4-Bromobenzoyl)-4-tert-butyl-6-aminomethylphenol hydrochloride], the inhibition in vivo at 30 mg/kg in series [1] stood at 35%. On the same count and under the same terms, next, `CC(C)(C)c1cc(CN)c(O)c(C(=O)Cc2ccccc2)c1` [2-Phenylacetyl-4-tert-butyl-6-aminomethylphenolhydrochloride]: 20.3%; `CSCCC(=O)c1cc(C(C)(C)C)cc(CN)c1O` [2-(3-Methylthiopropionyl)-4-tert-butyl-6-aminomethylphenol hydrochloride]: 29.3%. For the compound `CC(C)(C)c1cc(CN)c(O)c(C(=O)C2CCCCC2)c1` [2-Cyclohexylcarbonyl-4-tert-butyl-6-aminomethylphenol hydrochloride], in series [1], the inhibition in vivo at 30 mg/kg was 27.1%. On to `CCC(=O)c1cc(C(C)(C)C)cc(CN)c1O.Cl` [2-Propionyl-4-tert-butyl-6-aminomethylphenol hydrochloride], for which the sign of ulcer result in the series with ulcer in rats is given as “did not show any sign of ulcer”. Further, in series [1], the inhibition in vivo at 30 mg/kg amounted to 72.8%. Further, the “% Inhibition (Randall-Selitto pain threshold change)” value in series [3] (50 mg/kg) is given as 70%; in series [3] (100 mg/kg), 113%. Moreover, the “% Inhibition (acetic acid stretching)” value was determined as 35.3% in series [2] (10 mg/kg), 61.3% in series [2] (20 mg/kg) and 85.3% in series [2] (50 mg/kg). As for `CC(C)(C)c1cc(CN)c(O)c(C(=O)c2ccccc2)c1` [2-Benzoyl-4-tert-butyl-6-aminomethylphenol hydrochloride], the inhibition in vivo at 30 mg/kg in series [1] was 47.6%. Still for that read-out and setting: next, `CCC(=O)c1c(O)c(CN)cc2c1CCCC2` [1-Propionyl-3-aminomethyl-5,6,7,8-tetrahydro-2-naphthol hydrochloride]: 37.4%; `CC(=O)c1cc(C(C)(C)C)cc(CN)c1O` [2-Acetyl-4-tert-butyl-6-aminomethylphenol hydrochloride]: 46.7%; `CC(=O)c1cc2c(c(CN)c1O)CCCC2C` (centres unmarked) [1-Aminomethyl-3-acetyl-5-methyl-5,6,7,8-tetrahydro-2-naphthol hydrochloride]: 66.3%.

For the origin of these results see US4245099A, “2-Acyl-6-aminomethylphenol derivatives” (Ono Pharmaceutical Co., Ltd., priority 1978, dated 1981).
